Among the data in patent US20090136720A1, “Azo Compound, Ink Composition, Recording Method and Colored Article” (priority 2006, published 2009) are solubility values, retold here.

The data set in a line: Solubility of the azo compound. The conditions noted are these: water; sodium salt. Type of data set: physicochemical.

Broadly, the solubility is how much of the substance goes into solution per volume. In the case of `Cc1cc(N=Nc2c(S(=O)(=O)O)cc3c(S(=O)(=O)O)c(N=Nc4cc(S(=O)(=O)O)c5cc(S(=O)(=O)O)c(N=Nc6ccc([N+](=O)[O-])cc6S(=O)(=O)O)c(O)c5c4N)ccc3c2O)c(OCCCS(=O)(=O)O)cc1N=Nc1cc(S(=O)(=O)O)cc2cc(S(=O)(=O)O)cc(O)c12` [Compound No. 3], the solubility is not below 100 mg/mL.
